Results as given in US6361758B1, “Cosolvent formulations” (Abbott Laboratories, priority 1998, dated 2002).

How the values were obtained:
[1] = Solubility of paracalcin in a cosolvent system; type: physicochemical; conditions: 25° C.
Experimental: An adequate amount of paracalcin was weighed and added to 10 ml of cosolvent contained in a 10 ml stoppered glass test tube. Two samples were prepared for each cosolvent composition. The test tubes containing samples were shaken in a 25° C. reciprocal shaking water bath at 100 rpm. Upon complete dissolution, an aliquot was filtered through a 0.45 micron syringe filter and the filtrate diluted 1:1 with 50% methanol. The resulting diluted material was measured for the content of paracalcin.

[2] = Stability of paracalcin in a cosolvent formulation; type: physicochemical; conditions: 5 μg/ml in 20% ethanol/30% propylene glycol/50% water
Experimental: Samples of paracalcin (5 μg/ml) in 20% ethanol/30% propylene glycol/50% water were prepared for stability testing. In an appropriate vessel, water for injection to approximately 30% of final volume is added. Propylene glycol is added to the vessel with mixing. In a separate container, the specified amount of paracalcin is dissolved in a portion of the ethanol (190 proof non-beverage), which is obtained from the total volume of ethanol specified for the batch, and added to the vessel with mixing. An additional aliquot of the batch ethanol is used to rinse the container and the rinsing solution is added to the vessel with mixing. The remaining alcohol is added to the vessel with mixing. Q.s. with water for injection to final volume and mix for approximately 30 minutes. The solution is filtered through a 0.45 micron membrane and dispensed into ampuls. Each ampul is flame sealed and autoclaved to F016.
One set of ampuls are tested (T=0) for percent paracalcin remaining in solution and served as control (i.e., 100% remaining). A second set of ampuls are stored at 40° C. and tested at 1, 2, and 3 months. A final set are stored at 30° C. and tested at 1, 2, 3, 6, 9, 12, 18, and 24 months. The results are shown in Table 2 as paracalcin remaining as a percent of control (T=0). Each time point represents 1 to 5 data points.

[3] = system: Staphylococcus aureus, Escherichia coli, Pseudomonas aeruginosa, Candida albicans, Aspergillus niger; test: USP 23 preservative effectiveness test; type: cell-based; conditions: added to the 20% ethanol/30% PG formulation; data not shown
Description: Solutions of 20% ethanol, 30% propylene glycol, 20% ethanol/30% PG, 30ethanol/20% PG, and 40% ethanol/10% PG were passed through a 0.45 micro filter and tested by the USP 23 preservative effectiveness test as described in United States Pharmacopoeia 23-NF 18, 1995 Ed., Chapter 51, page 1681, which is incorporated herein by reference. Briefly, this involves inoculating the test solution with 10^5 to 10^6 test organisms per milliliter and then determining the number of surviving organisms after 7, 14, 21, and 28 days incubation at 20-25° C. using standard microbiological methods. Day 0 data is not required by USP 23 but was included in this study. A filtration and wash method was used to remove the inactivating agents for purposes of recovering the microorganisms, but other equivalent agents can also be validated for use. The USP test organisms include the bacteria Staphylococcus aureus, Escherichia coli, and Pseudomonas aeruginosa, a yeast (Candida albicans), and a mold (Aspergillus niger). […] The yeast and mold must not increase from the initial inoculum level. The initial inoculum level can either be calculated by knowing the stock culture concentration or by using a buffer control instead of the test solution.

Paracalcin concentration in cosolvent (solubility) ([1]; Ethanol 0.00, Propylene glycol 0.302, Water 0.698): 0.58 µg/mL | Paracalcin concentration in cosolvent (solubility) ([1]; Ethanol 0.00, Propylene glycol 0.506, Water 0.494): 14.21 µg/mL | Paracalcin concentration in cosolvent (solubility) ([1]; Ethanol 0.100, Propylene glycol 0.257, Water 0.643): 2.88 µg/mL | Paracalcin concentration in cosolvent (solubility) ([1]; Ethanol 0.199, Propylene glycol 0.207, Water 0.594): 15.94 µg/mL | Paracalcin concentration in cosolvent (solubility) ([1]; Ethanol 0.201, Propylene glycol 0.308, Water 0.491): 72.90 µg/mL | Paracalcin concentration in cosolvent (solubility) ([1]; Ethanol 0.299, Propylene glycol 0.00, Water 0.701): 6.82 µg/mL | Paracalcin concentration in cosolvent (solubility) ([1]; Ethanol 0.347, Propylene glycol 0.102, Water 0.551): 119.37 µg/mL | Paracalcin concentration in cosolvent (solubility) ([1]; Ethanol 0.498, Propylene glycol 0.00, Water 0.502): 601.63 µg/mL | paracalcin remaining as a percent of control (T=0) ([2]; 30° C., 0 months (Initial), autoclaved ampuls): 100% of control | paracalcin remaining as a percent of control (T=0) ([2]; 30° C., 1 month): 96% of control | paracalcin remaining as a percent of control (T=0) ([2]; 30° C., 2 months): 96% of control | paracalcin remaining as a percent of control (T=0) ([2]; 30° C., 3 months): 97% of control | paracalcin remaining as a percent of control (T=0) ([2]; 30° C., 6 months): 96% of control | paracalcin remaining as a percent of control (T=0) ([2]; 30° C., 9 months): 97% of control | paracalcin remaining as a percent of control (T=0) ([2]; 30° C., 12 months): 100% of control | paracalcin remaining as a percent of control (T=0) ([2]; 30° C., 18 months): 97% of control | paracalcin remaining as a percent of control (T=0) ([2]; 30° C., 24 months): 96% of control | paracalcin remaining as a percent of control (T=0) ([2]; 40° C., 0 months (Initial), autoclaved ampuls): 100% of control | paracalcin remaining as a percent of control (T=0) ([2]; 40° C., 1 month): 96% of control | paracalcin remaining as a percent of control (T=0) ([2]; 40° C., 2 months): 96% of control | paracalcin remaining as a percent of control (T=0) ([2]; 40° C., 3 months): 98% of control
Structure (SMILES): C[C@H](/C=C/[C@H](C)C(C)(C)O)[C@H]1CC[C@H]2/C(=C/C=C3C[C@@H](O)C[C@H](O)C3)CCC[C@]12C [paracalcin, 19-nor-1α,3β,25-trihydroxy-9,10-secoergosta-5,7(E),22(E)-triene]
effect of addition of paracalcin on the preservative effect of the formulation [3]: no effect
